Test results: article PMC10349806 (Nature Communications, 2023)
“And” between values parts separate entries of the source, which are not always exact repeats. Equal entries are not always repeated.

Molecular target: T1, PfCRT variant Y276A (Plasmodium falciparum, UniProt Q9N623, A220S/I356T/K76T/M74I/N326S/N75E/Q271E/R371I/Y276A)
T1 sequence (Q9N623 1-424 M74I/N75E/K76T/A220S/Q271E/Y276A/N326S/I356T/R371I): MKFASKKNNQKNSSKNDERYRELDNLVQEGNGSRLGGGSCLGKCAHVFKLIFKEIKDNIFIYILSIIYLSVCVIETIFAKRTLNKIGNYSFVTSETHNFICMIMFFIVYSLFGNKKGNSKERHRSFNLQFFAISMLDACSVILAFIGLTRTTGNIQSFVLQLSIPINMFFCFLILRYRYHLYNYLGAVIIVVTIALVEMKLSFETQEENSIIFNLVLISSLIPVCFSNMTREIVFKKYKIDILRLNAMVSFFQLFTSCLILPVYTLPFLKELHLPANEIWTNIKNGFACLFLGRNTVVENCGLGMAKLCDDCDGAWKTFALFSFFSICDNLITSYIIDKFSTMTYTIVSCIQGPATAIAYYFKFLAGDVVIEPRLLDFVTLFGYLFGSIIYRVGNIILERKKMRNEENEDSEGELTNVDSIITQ
Assay: CQ uptake assay, oocytes expressing Y276A
Assay type: cell-based
Description: Site-directed mutagenesis of PfCRT^Dd2 was performed as described using the megaprimer method with overlap extension[21],[54]. The primer pairs used are listed in Supplementary Table 6. Please note that a codon-optimized and oocyte-adapted version of PfCRT^Dd2 was used[22] (Supplementary Fig. 16). The resulting DNA fragment was cloned into the SP64T expression vector and verified by sequencing.
Oocytes were obtained as described previously. Briefly, adult (>2 years old) female X. laevis frogs (NASCO) were anesthetized in a cooled solution of ethyl 3-amino benzoate methanesulfonate (0.1%, w/v), followed by a surgical removal of parts of the ovary. The ovary lobes were carefully dissected and small pieces of oocytes were incubated in Ca^2+-free ND96 buffer (96 mM NaCl, 2 mM KCl, 1 mM MgCl2 buffered with 5 mM HEPES/NaOH, pH 7.5) supplemented with collagenase D (0.1%, w/v; Roche), BSA (0.5%, w/v), and 9 mm Na2HPO4 at 18 °C for 14-16 h while gentle shaking. After incubation, the oocytes were carefully washed several times with ND96 buffer (96 mM NaCl, 2 mM KCl, 1.8 mM CaCl2, 1 mM MgCl2 buffered with 5 mM HEPES/NaOH, pH 7.5) supplemented with 100 mg l^−1 gentamycin). Defolliculated and healthy-looking stage V-VI oocytes were manually selected for RNA microinjection. The RNA was generated as following: The codon-optimized sequences of PfCRT variants were cloned into the pSP64T expression vector. After vector linearization using the restriction endonucleases BamHI or SalI (New England Biolabs), transcription was performed using the in vitro SP6 mMessage mMachine Kit (Ambion)[34]. The obtained RNA was kept at −80 °C and diluted with nuclease-free water to a concentration of 0.6 μg μl^−1. Precision-bore glass capillary tubes (3.5-inch glass capillaries; Drummond Scientific Co.) were pulled on a vertical puller (P-87 Flaming/Brown micropipette puller, Sutter Instrument Co.), graduated, and placed on a microinjector (Nanoject II Auto-Nanoliter Injector, Drummond Scientific Co.). 50 nl of nuclease-free water alone (control oocytes) or 50 nl of 0.6 μg μl^−1 RNA were injected under stereomicroscopic control. Injected oocytes were incubated for 46–72 h at 18 °C with twice-daily buffer changes before usage in experiments.
Drug uptake assays were performed as described previously[21],[22],[24],[34]. […] The direction of radio-labeled drug transport is here from the mostly acidic extracellular solution (pH 4.5 or 6.0, as indicated) into the oocyte cytosol (pH ∼ 7.2), which corresponds to the efflux of drug from the acidic digestive vacuole (pH 5.2) into the parasite cytoplasm (pH 7.2). The topology of PfCRT in the oolemma is such that both the N- and C-terminus face the extracellular milieu[3],[22]. In the parasite, the N- and C-terminus face the lumen of the digestive vacuole. […] For determination of the amount of drug uptake for each oocyte, the reaction medium was removed and the oocytes were washed three times with 2 ml of ice-cold ND96 buffer. Each oocyte was individually transferred to a scintillation vial containing 5% sodium dodecyl sulfate (200 μl) for lysis. […] Oocytes that were injected with water instead of RNA were analyzed in parallel, representing the uptake of a drug by diffusion and/or endogenous permeation pathways. The resulting value represents the “background“ level of drug accumulation in oocytes (in-depth discussion in[22]). The specific PfCRT-mediated uptake was determined by subtracting the corresponding background value measured in water-injected oocytes from that of PfCRT-expressing oocytes. In all cases, at least three separate experiments were performed on oocytes from different frogs (biological replicate), and for each condition in an experiment, measurements were made from 10 oocytes per treatment. For pH 5.5, 6.0, and 6.5, ND96 was buffered with 5 mM MES/Tris base.

[1] = Y276A, 50 µM CQ, 1 h, mean ± SEM

CCN(CC)CCCC(C)Nc1ccnc2cc(Cl)ccc12 (stereo not drawn) [CQ, chloroquine]
Activity at pH 4.5 [1]: 1.50 ± 0.12 pmol h-1 oocyte-1 | Activity at pH 6.0 [1]: 3.51 ± 0.35 pmol h-1 oocyte-1 | R-value (Y276A, CQ transport at pH 4.5 / pH 6.0): 0.45 ± 0.09 | Y276A transport activity pH 4.5 (pH 4.5, single replicates, Fig 1d left): 1.28 pmol oocyte-1 h-1 and 1.46 pmol oocyte-1 h-1 | Y276A R-value (pH 4.5 vs pH 6.0, Fig 1d left): 0.34 and 0.66 and 0.36 | Y276A transport activity pH 6.0 (pH 6.0, single replicates, Fig 1d left): 3.78 pmol oocyte-1 h-1 and 2.68 pmol oocyte-1 h-1 and 4.08 pmol oocyte-1 h-1
